Laboratory results reported in patent US20150112425A1, “DELIVERY OF HIGHLY LIPOPHILIC AGENTS VIA MEDICAL DEVICES” (Abbott Laboratories, priority 2005, published 2015).
Read-outs that look alike come from different tables or passages of the source.

Legend:
[1] = Pharmacokinetics after single intravenous dose in cynomolgus monkey; type: in vivo; conditions: for t1/2: terminal elimination, single 2.5 mg/kg intravenous dose, blood; for Terminal elimination half-life compared to rapamycin: cynomolgus monkey, intravenous
[2] = tested on: human mixed lymphocyte reaction (MLR); assay: Human mixed lymphocyte reaction (MLR) assay; type: cell-based; conditions: read-out: Human MLR IC50 ± S.E.M.
[3] = representative summary; cited from earlier work
[4] = Six-hour elution from PC1036-coated coupons (FIG. 10-13); type: physicochemical; conditions: for Amount released from coupon: after 6 hours, pH 7.4 PBS, 37° C.; for Amount remaining on coupon: six-hour elution
Experimental: Prior to any experimentation, coated stainless steel coupons were prepared. These coupons were 316 L electropolished stainless steel discs (10 mm diameter). This size was chosen because the surface area of one side of the coupon is similar to the surface area of a 15-mm open cell BiodivYsio stent. […]. The cleaning was a two-step process in which the coupons are sonicated for 3 minutes in dichloromethylene and 3 minutes in ethanol. The coupons were allowed to dry at room temperature. One side of the coupon was coated using a filtered 20-mg/mL solution of phosphoryl choline polymer PC1036 (product of Biocompatibles Ltd., Farnham, Surrey, UK) in ethanol. Twenty μL PC solution was placed onto the coupon using a gas tight glass syringe, ensuring that the entire surface was coated but not spilling over the sides of the coupon. The coupons were initially air dried and then cured at 70° C. for 16 hours. They were then sent for gamma irradiation at <25KGy. The resulting PC coating thickness was close to that of the stent and thick enough to accommodate the desired loaded drug dose, as graphically represented in FIG. 9A-B. FIG. 9A-B is a top and side view of a coated stainless steel coupon 30, having a PC-coating 20 on a electropolished stainless steel disc.
In these experiments, beneficial agents were loaded onto coupons and elution profiles examined. In general, the procedure is as follows. Twelve PC-coated coupons were loaded with each drug. The solutions of the drugs were usually 5.0 mg/mL in 100% ethanol and were filtered with a 0.45 μm filter prior to use.
The coupons were weighed before loading with the drug solution. To load 100 μg of drug, 20 μL of solution was placed (e.g., pipetted) on the center of the PC coated side of the coupon. The coupon was placed in a vial for 30 minutes with the lid closed to allow the drug to penetrate the coating. The lid was removed and the coupon was allowed to dry for an additional 90 minutes. To ensure that the coupon was completely dry, the coupon was weighed, and after 15 minutes the coupon was weighed a third time. When two weightings of the coupon were the same, the coupon was considered dry. The loaded, dry coupons were stored in a refrigerator protected from light.
For each drug, six coupons were used to evaluate the total amount of drug loaded by the above procedure. The coupons were immersed in 5 mL of 50% ethanol, 50% water solution and sonicated for 1 hour. The concentration of the drug in the extraction solution was analyzed by HPLC.
At the end of the elution experiments discussed below, the coupons were removed from the elution media and immersed in 5 mL of 50% ethanol, 50% water solution and sonicated for 1 hour. The concentration of the drug in these vials indicated the amount of the drug remaining in the coupons at the end of the elution experiments.
Six coated coupons of each drug were used for the elution experiments. The coupons were individually placed, coating side up, in small metal cups to hold the coupon and to allow movement to a new vial at each time point. The coupons were usually placed in a vial containing 10 mL of pH 7.4 phosphate buffered saline. The vials were stored in an orbital shaker, with horizontal shaking of 100 rpm, at 37° C. for at least 30 minutes before insertion of a coupon to allow the solution to equilibrate at the desired temperature. After the desired time had lapsed, the coupon holder was lifted and allowed to drain. It was then placed into a pre-warmed vial corresponding to the next time point. This procedure continued until the predetermined time had elapsed. At that point, the coupons went through a drug extraction step as outlined earlier. The amount of drug in the elution samples was determined by HPLC.

[5] = Shake-flask aqueous solubility study of DES drugs (FIG. 20); conditions: for Aqueous solubility, rank order: amorphous DES drugs, dexamethasone crystalline
[6] = Stability of dexamethasone on PC-coated stents in ETO sterilization (FIG. 16); type: physicochemical
[7] = Transfer coefficient (P divided by S) of DES drugs (FIG. 21); type: physicochemical; conditions: P divided by equilibrium aqueous solubility S (μg/ml)
[8] = Shake-flask octanol/water partition coefficient study of DES drugs (FIG. 20); type: physicochemical
Experimental: “Solubility” is based on a standard measure used in medicinal chemistry. The octanol-water partition coefficient (P) is the ratio of distribution of a compound in a mixture of 1-octanol and H2O. Log P is the base 10 logarithm of the partition coefficient.
In the measurement of the partition coefficient (octanol/water), preliminary studies were conducted to determine the optimum drug concentration for each test, and the appropriate time for establishing the partition equilibrium. All experiments were carried out by two different analysts and on multiple drug lots.

[9] = Pig model, tissue and blood concentrations of zotarolimus eluted from ZoMaxx stents (FIG. 25); type: in vivo

What does the source list for “40-epi-N-[2′-pyridone]-rapamycin [Example 2-pyridone]”?
t1/2 [1]: 2.8 h; IC50 [2]: 12400 ± 5300 pM

With CO[C@H]1C[C@@H]2CC[C@@H](C)[C@@](O)(O2)C(=O)C(=O)N2CCCC[C@H]2C(=O)O[C@H]([C@H](C)C[C@@H]2CC[C@H](n3ncnn3)[C@H](OC)C2)CC(=O)[C@H](C)/C=C(\C)[C@@H](O)[C@@H](OC)C(=O)[C@H](C)C[C@H](C)/C=C/C=C/C=C/1C (single isomer, unassigned; less polar) [Example 1, 42-Epi-(tetrazolyl)-rapamycin (less polar isomer)] as the compound, how does the “Terminal elimination half-life compared to rapamycin” value [1] read?
Its value is “substantially shorter”.

Which “Terminal elimination half-life compared to rapamycin” value [1] does the source give for COC1CC2CCC(C)C(O)(O2)C(=O)C(=O)N2CCCCC2C(=O)OC(C(C)CC2CCC(n3cnnn3)C(OC)C2)CC(=O)C(C)C=C(C)C(O)C(OC)C(=O)C(C)CC(C)C=CC=CC=C1C (single isomer, unassigned; more polar) [Example 2, 42-Epi-(tetrazolyl)-rapamycin (more polar isomer)] here?
Its value is “substantially shorter”.

Which “LogP Values” [3] does the source give for CCCCN(CCCC)C(=O)CN1C[C@H](c2ccc3c(c2)OCO3)[C@@H](C(=O)O)[C@@H]1c1ccc(OC)cc1.Cl [ABT-627, atrasentan] here?
The value was 3.4.

What about the “Amount released from coupon” value ([4]; in absence of zotarolimus) of the same compound?
The value was 50%.

What about the “Amount released from coupon” value ([4]; in presence of zotarolimus) of the same compound?
Its value is “less than 10%”.

With COc1ccccc1OCCNCC(O)COc1cccc2[nH]c3ccccc3c12 (stereo not drawn) [Carvedilol] as the compound, how does the “LogP Values” [3] read?
The value was 1.97.

For C#C[C@]1(O)CC[C@H]2[C@@H]3CCC4=Cc5oncc5C[C@]4(C)[C@H]3CC[C@@]21C [Danazol], which “LogP Values” [3] is on record?
Its value is 4.5.

With C[C@@H]1C[C@H]2[C@@H]3CCC4=CC(=O)C=C[C@]4(C)[C@@]3(F)[C@@H](O)C[C@]2(C)[C@@]1(O)C(=O)CO [Dexamethasone] as the compound, how does the “LogP Values” [3] read?
Its value is ~1.9-2.2.

And the “Amount remaining on coupon” value ([4]; coupon containing zotarolimus)?
Its value is about 70%.

What about the “Amount remaining on coupon” value ([4]; no zotarolimus present) of the same compound?
Its value is 25%.

What about the “Aqueous solubility, rank order” value [5] of the same compound?
The value was “increasing order: paclitaxel, zotarolimus, rapamycin, and dexamethasone (crystalline)”.

And the “Degradation in ETO sterilization environment” value ([6]; dexamethasone-only coating)?
The value was “degraded”.

And the “Degradation in ETO sterilization environment” value ([6]; loaded in combination with zotarolimus, 1-to-1 ratio)?
The value was “did not degrade”.

For OCCN(CCO)c1nc(N2CCCCC2)c2nc(N(CCO)CCO)nc(N3CCCCC3)c2n1 [Dipyridamole], which “Amount released from coupon” value ([4]; in absence of zotarolimus) is on record?
The value was about 90%.

And the “Amount released from coupon” value ([4]; in presence of zotarolimus)?
The value was “about 52%”.

What does the source list for COC1CC2CCC(C)C(O)(O2)C(=O)C(=O)N2CCCCC2C(=O)OC(C(C)CC2CCC(n3ccc(=O)cc3)C(OC)C2)CC(=O)C(C)C=C(C)C(O)C(OC)C(=O)C(C)CC(C)C=CC=CC=C1C (stereo not drawn) [Example 4-pyridone, 40-epi-N-[4′-pyridone]-rapamycin]?
t1/2 [1]: 13.3 h; IC50 [2]: 430 ± 200 pM

With CC(C)OC(=O)C(C)(C)Oc1ccc(C(=O)c2ccc(Cl)cc2)cc1 [Fenofibrate] as the compound, how does the “LogP Values” [3] read?
The value was over 4.5.

Which “LogP Values” [3] does the source give for CCCCC/C=C\C/C=C\CCCCCCCC(=O)O [Linoleic acid] here?
The value was over 6.

Which “LogP Values” [3] does the source give for CC/C=C\C/C=C\C/C=C\CCCCCCCC(=O)O [Linolenic acid] here?
The value was over 6.

With CCCCCCCC/C=C\CCCCCCCC(=O)O [Oleic acid] as the compound, how does the “LogP Values” [3] read?
Its value is over 6.

With CC(=O)O[C@H]1C(=O)[C@@]2(C)[C@H]([C@H](OC(=O)c3ccccc3)[C@]3(O)C[C@H](OC(=O)[C@H](O)[C@@H](NC(=O)c4ccccc4)c4ccccc4)C(C)=C1C3(C)C)[C@]1(OC(C)=O)CO[C@@H]1C[C@@H]2O [Paclitaxel] as the compound, how does the “Transfer coefficient, rank order” value [7] read?
The value was “zotarolimus>>paclitaxel>>rapamycin>dexamethasone”.

And the “Aqueous solubility, rank order” value [5]?
Its value is “increasing order: paclitaxel, zotarolimus, rapamycin, and dexamethasone (crystalline)”.

For O=C(Oc1ccccc1)c1ccccc1O [Phenyl salicylate], which “LogP Values” [3] is on record?
The value was 4.1.

With CC(C)(Sc1cc(C(C)(C)C)c(O)c(C(C)(C)C)c1)Sc1cc(C(C)(C)C)c(O)c(C(C)(C)C)c1 [Probucol] as the compound, how does the “LogP Values” [3] read?
Its value is over 8.

For CC(=O)[C@H]1CC[C@H]2[C@@H]3CCC4=CC(=O)CC[C@]4(C)[C@H]3CC[C@]12C [Progesterone], which “LogP Values” [3] is on record?
The value was 3.2.

Which “LogP Values” [3] does the source give for CO[C@H]1C[C@@H]2CC[C@@H](C)[C@@](O)(O2)C(=O)C(=O)N2CCCC[C@H]2C(=O)O[C@H]([C@H](C)C[C@@H]2CC[C@@H](O)[C@H](OC)C2)CC(=O)[C@H](C)/C=C(\C)[C@@H](O)[C@@H](OC)C(=O)[C@H](C)C[C@H](C)/C=C/C=C/C=C/1C [Rapamycin] here?
The value was over 4.5.

What about the “Lipophilicity rank among DES drugs tested” value [8] of the same compound?
The value was “the most lipophilic compounds in the group tested”.

What about the “Transfer coefficient, rank order” value [7] of the same compound?
Its value is “zotarolimus>>paclitaxel>>rapamycin>dexamethasone”.

What about the IC50 ([2]; Homo sapiens, Lymphocyte) of the same compound?
The IC50 was 910 ± 360 pM.

What about the “Aqueous solubility, rank order” value [5] of the same compound?
Its value is “increasing order: paclitaxel, zotarolimus, rapamycin, and dexamethasone (crystalline)”.

With CCCCCCCCCCCCCCCCCC(=O)O [Stearic acid] as the compound, how does the “LogP Values” [3] read?
Its value is over 6.

Which “LogP Values” [3] does the source give for C=CC[C@@H]1/C=C(\C)C[C@H](C)C[C@H](OC)[C@H]2O[C@@](O)(C(=O)C(=O)N3CCCC[C@H]3C(=O)O[C@H](/C(C)=C/[C@@H]3CC[C@@H](O)[C@H](OC)C3)[C@H](C)[C@@H](O)CC1=O)[C@H](C)C[C@@H]2OC [Tacrolimus] here?
The value was over 4.5.

Which “LogP Values” [3] does the source give for CC[C@]1(O)C[C@@H]2CN(CCc3c([nH]c4ccccc34)[C@@](C(=O)OC)(c3cc4c(cc3OC)N(C)[C@H]3[C@@](O)(C(=O)OC)[C@H](OC(C)=O)[C@]5(CC)C=CCN6CC[C@]43[C@@H]65)C2)C1 [Vinblastine] here?
Its value is 3.6.

For CC[C@]1(O)C[C@H]2CN(CCc3c([nH]c4ccccc34)[C@@](C(=O)OC)(c3cc4c(cc3OC)N(C=O)[C@H]3[C@@](O)(C(=O)OC)[C@H](OC(C)=O)[C@]5(CC)C=CCN6CC[C@]43[C@@H]65)C2)C1 [Vincristine], which “LogP Values” [3] is on record?
The value was 2.6.

For CC[C@]1(O)C[C@@H]2CN(CCc3c([nH]c4ccccc34)[C@@](C(=O)OC)(c3cc4c(cc3OC)N(C)[C@H]3[C@@](O)(C(N)=O)[C@H](O)[C@]5(CC)C=CCN6CC[C@]43[C@@H]65)C2)C1 [Vindesine], which “LogP Values” [3] is on record?
The value was 1.3.

What does the source list for CO[C@H]1C[C@@H]2CC[C@@H](C)[C@@](O)(O2)C(=O)C(=O)N2CCCC[C@H]2C(=O)O[C@H]([C@H](C)C[C@@H]2CC[C@H](n3cnnn3)[C@H](OC)C2)CC(=O)[C@H](C)/C=C(\C)[C@@H](O)[C@@H](OC)C(=O)[C@H](C)C[C@H](C)/C=C/C=C/C=C/1C [Zotarolimus]?
LogP Values [3]: >4.5; Lipophilicity rank among DES drugs tested [8]: the most lipophilic of all DES drugs tested; Concentration in arterial tissue adjacent to stent placement ([9]; all periods out to 28 days): substantial concentrations; Concentration in distal, unstented and subjacent myocardium and unstented and distal coronary arteries ([9]; throughout 28 days): therapeutically significant concentrations; Transfer coefficient, rank order [7]: zotarolimus>>paclitaxel>>rapamycin>dexamethasone; Aqueous solubility, rank order [5]: increasing order: paclitaxel, zotarolimus, rapamycin, and dexamethasone (crystalline); Solubility in water compared with amorphous rapamycin ([5]; shake-flask): much less soluble in water than amorphous rapamycin
